Measurements reported in patent US5190919A, “Antihemostatic Factor VII peptides” (Board of Regents, The University of Texas System, priority 1989, dated 1993).
Where two headings read alike, the source gives them in different places. Values belong to the substance of their own block, whether it stands above or below them. Ends that are not written are not given here.

Legend:
[1] = system: Factor VII-tissue factor complex; assay: Rate of Factor X activation, two-stage chromogenic (amidolytic) assay with purified proteins; assay type: biochemical, human; conditions: for Factor Xa Formation (% of Control Rate): 200 μM of each synthetic peptide, amidolytic assay, purified proteins; for Dose-dependent inhibition of the rate of Factor Xa formation / Factor VII activity: result in words
Protocol: (§1) 3. Rate of Factor X activation: The effect of the synthetic peptides on the rate of activation of Factor X was analyzed in a purified system employing chromogenic assays. For the inhibition experiments, peptides were diluted in 20 mM Tris-HCl, 150 mM NaCl, pH 7.4 (TBS) and preincubated with 10 microliters each of Factor X (180 nM) and tissue factor (0.075%) at 37 degrees Centigrade in a total volume of 140 microliters adjusted with TBS containing 1% bovine serum albumin (BSA) and 5 mM CaCl2. After 30 minutes, Factor X activation was initiated by the addition of 10 microliters of Factor VII (2 pM). At defined timed intervals, 20 microliter aliquots were removed and added to a microtiter plate containing 80 microliters of 50 mM Tris-HCl, 225 mM NaCl and 10 mM EDTA, pH 8.2. Following sample collection, 50 microliters of 0.6 mM chromogenic substrate was added and the rate of change in the absorbance at 405 nm was monitored for 10 minutes using a Vmax Kinetic Microplate Reader (Molecular Devices, Inc., Palo Alto, Calif.). The rate of Factor Xa formation was calculated from the slope of linear regression of data plotted as a function of the initial rate of hydrolysis (OD405 /min) versus time and expressed as OD405 /min^2.
(§2) 5. Inhibition assays: The inhibition of Factor VII function was determined in the two-stage chromogenic assay described in Example I-A, 3. The peptides were initially screened at 200 μM added concentration. To determine the concentration of peptide required to inhibit the rate of Factor X activation by 50% (CI50), peptides at various concentrations or buffer (TBS-BSA) were incubated with their respective complexes. Following the addition of Factor VII, the rate of Factor Xa generation was determined and the percent of Factor X activation in the presence of different concentrations of Factor VII peptides relative to buffer controls was calculated. Analogous determinations of the CI50 values were measured in the specific coagulation assay outlined above. Factor VII activity in the presence of varying concentrations of peptide was measured by comparing the clotting times to a standard curve constructed from the log of the clot time versus the log of Factor VII concentration in the same incubation mixtures described for the peptides.
(§3) Kinetic analysis of multiple inhibitors known to be noncompetitive in nature was conducted holding the concentration of the first inhibitory peptide constant and varying the concentration of a second inhibitory peptide. The analysis for mutual exclusivity of the inhibitory peptides employed the methods adapted from Segel (12). […] Regression lines which intersect with one another indicate mutual non-exclusivity of one peptide to another, i.e. tested peptides act as regions which are spatially separate from one another.
(§4) Factor VII function results from a two-step mechanism. First, Factor VII must associate with tissue factor in order to form the active macromolecular complex and second, Factor VII activity within the macromolecular complex can be measured by the conversion of substrate to product, e.g. activation of Factor X. The peptides of the present invention were tested for their ability to inhibit Factor X activation by employing the two-stage chromogenic assay described in Example I-A, 3. Inhibition of Factor X activation measured by this assay detects both of the steps stated for Factor VII function. To verify the inhibitory effect of the synthetic peptides, each of the components were titrated. […] Factor X was titrated against the preformed Factor VII-tissue factor complex in the presence of at least 10^4 molar excess of each peptide. Selected peptides were inoubated with tissue factor and Factor X for 30 minutes at […] before the addition of Factor VII. This preincubation time was sufficient for the peptides to reach equilibrium with the target protein (13). […]

[2] = target: T1, Factor VII-tissue factor complex (Homo sapiens, UniProt P08709+P13726); assay: as above; assay type: biochemical; conditions: for IC50: derivatives of peptide 194-214 (FIG. 4), read-out: Apparent CI50, rate of Factor Xa formation
T1 construct: Factor VII/VIIa (6), Factor X (7), and Factor Xa (8) were isolated as previously reported; Tissue factor was prepared from human brain as described (9); from tissue; host or cells: Tissue factor from human brain (gift of Dr. J. H. Morrissey)
T1 sequence (P13726 33-295, one chain of several): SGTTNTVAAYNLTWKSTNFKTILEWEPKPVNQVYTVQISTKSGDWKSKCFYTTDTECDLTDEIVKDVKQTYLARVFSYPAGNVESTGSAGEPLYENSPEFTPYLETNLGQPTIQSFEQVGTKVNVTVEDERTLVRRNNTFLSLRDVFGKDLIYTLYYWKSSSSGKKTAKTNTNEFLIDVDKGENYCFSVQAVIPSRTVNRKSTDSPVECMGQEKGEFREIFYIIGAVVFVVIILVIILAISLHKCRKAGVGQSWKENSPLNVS
Protocol: as §1, §2, §3, §4

Factor VII = target: T2, Factor VII (Homo sapiens, UniProt P08709); assay: Two-stage clotting assay specific for Factor VII function in Factor VII-depleted plasma; assay type: biochemical; conditions: for IC50: Table 2, Factor VII-depleted plasma, tissue factor, read-out: Concentration for 50% Inhibition, VIIa Coagulant Activity
T2 construct: Factor VII/VIIa (6), Factor X (7), and Factor Xa (8) were isolated as previously reported
T2 sequence (P08709 61-466): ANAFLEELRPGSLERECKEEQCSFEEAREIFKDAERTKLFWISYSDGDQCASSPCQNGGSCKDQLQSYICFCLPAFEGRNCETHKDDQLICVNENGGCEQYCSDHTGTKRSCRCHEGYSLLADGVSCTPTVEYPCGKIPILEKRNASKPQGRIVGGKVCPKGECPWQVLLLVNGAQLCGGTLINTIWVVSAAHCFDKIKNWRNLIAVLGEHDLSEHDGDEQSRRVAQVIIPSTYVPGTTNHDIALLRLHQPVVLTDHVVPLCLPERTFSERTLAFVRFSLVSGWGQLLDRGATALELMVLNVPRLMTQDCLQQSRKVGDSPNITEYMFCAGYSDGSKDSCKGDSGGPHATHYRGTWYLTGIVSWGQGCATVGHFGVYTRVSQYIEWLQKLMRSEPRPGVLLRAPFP
Protocol: 4. Coagulation assays: The effect of the synthetic peptides and antibodies to them on Factor VII coagulation activity was determined using two-stage clotting assays specific for Factor VII function.
Synthetic peptides were individually preincubated with 20 μl each of plasma immunochemically depleted of Factor VII and 0.25% tissue factor at 37 degrees Centigrade in a total volume of 190 μl adjusted with TBS containing 1% BSA and 5 mM CaCl2. At the end of 30 minutes, coagulation was initiated by the addition of 10 μl of Factor VII (1 nM). The time for clot formation was measured using a Fibrometer (BBL, Cockesysville, Md.). Factor VII activity in the presence of varying concentrations of peptide was quantitated by comparing their clotting times to a standard curve constructed from the log of the clot time versus the log of a known amount of Factor VII in the same reaction mixture without added peptide.
as §2, with “To determine the concentration of peptide required to inhibit the rate of Factor X activation by 50% (CI50), peptides at various concentrations or buffer (TBS-BSA) were incubated with their respective complexes.” left out
Based on the results of the chromogenic assays, three peptides, 208-229, 285-305 and 276-390, were selected for further study for their ability to inhibit a coagulation-based assay designed to measure Factor VII activity. […] After Factor VII was added, the time of clot formation was determined and quantitated.

[3] = Table 4, derivatives of inhibitory peptides, read-out: CI50, concentration of peptide inhibiting the rate of Factor Xa activation by 50%

Substance: PRLMTQDCLQQSRKVGDSPNITEYMFC [Peptide 303-329]
Factor Xa Formation (% of Control Rate) [1]: 92 % of Control Rate

Substance: GKVCPKGEC [Peptide 156-164]
Factor Xa Formation (% of Control Rate) [1]: 97 % of Control Rate

Substance: GEHDLSEHDGDEQ [Peptide 209-221, GEHDLSEHDGDEQ]
IC50 [2]: ~70 µM

Substance: VYTRVSQYIEWLQKL-NH2 [Peptide 376-390, VYTRVSQYIEWLQKL]
IC50 (Factor VII): 172 µM

Substance: AVLGEHDLSEHDG [Peptide 206-218, AVLGEHDLSEHDG]
IC50 [2]: ~50 µM

Substance: R-T-K-L-F-W-I-S-Y-S-D-G-D-Q-C (RTKLFWISYSDGDQC) [Peptide 36-50]
Dose-dependent inhibition of the rate of Factor Xa formation / Factor VII activity [1]: significantly inhibit the rate of Factor Xa formation in a dose-dependent manner

Continued, in another order:

IC50 [1, 3]: 205 µM
Substance: RNLIAVLGEHDLSE [Peptide 202-214, RNLIAVLGEHDLSE]

IC50 ([1]; Table 2, read-out: Concentration for 50% Inhibition, Rate of Factor Xa Formation): 3 µM
IC50 [1, 3]: 3 µM
Ki ([1]; from Dixon plots of the rate of Factor Xa formation, three Factor X concentrations, read-out: Ki, peptide inhibition constants for Factor VII activity): 2.8 ± 0.4 µM
Substance: GQLLDRGATALELMVLNVPRLGC-NH2 [Peptide 285-305]
Reduction of the rate and extent of Factor X activation ([1]; 9.5 μM peptide, varying Factor X concentration (FIG. 1)): about 50%
Factor Xa Formation (% of Control Rate) [1]: 0 % of Control Rate
Inhibition of the rate of Factor Xa formation relative to control reactions ([1]; 200 μM peptide): completely inhibited
Mixed inhibition, mutual exclusivity of peptides 209-221 and 285-305 ([1]; Dixon plots, 285-305 at 0, 1.5, 3.0 μM (FIG. 6B), lines intersect above abscissa): lack of mutual exclusively
Concentration for 50% inhibition, fold less than that for peptide 44-50, 194-214, 208-229 or 376-390 ([1]; FIG. 2): 15 to 20 fold
Concentration for 50% inhibition, fold less than that seen with peptides 170-178 and 330-340 ([1]; FIG. 2): 75 to 100 fold
Dose-dependent inhibition of the rate of Factor Xa formation / Factor VII activity [1]: significantly inhibit the rate of Factor Xa formation in a dose-dependent manner
Inhibition of clot formation (Factor VII; varying peptide concentrations (FIG. 7)): inhibited clot formation in a dose-dependent manner

IC50 [2]: ~50 µM
IC50 (Factor VII): 225 µM
Substance: LGEHDLSEHDGDEQSRRVAQVIGC-NH2 [Peptide 208-229]

IC50 [2]: ~70 µM
Substance: CFDKIKNWRNLIAVLGEHDLS-NH2 [Peptide 194-214]

Mixed inhibition, mutual exclusivity of peptides 209-221 and 193-203 ([2]; Dixon plots, 193-203 at 0, 14, 28 μM (FIG. 6A), parallel regression lines): mutually exclusive
Substance: 193-203: Factor VII region II synthetic peptide used in mixed inhibition; possibly the 196-203 of Table 4 (YPCGKIPILEK; UniProt P08709 193-203, looked up, fragment) [Peptide 193-203]
